Reference: patent publication US6627631B1, “Pharmaceutical composition containing desoxypeganine for the treatment of alcoholism” (priority 1999, dated 2003)

How the values were obtained:
[1] = system: ethanol-preferring rats (strain going back to the Finnish AA rat line); test: Voluntary alcohol consumption of genetic ethanol-preferring rats (free choice of 10% ethanol or water); type: in vivo; details: for Alcohol consumption, absolute / Food intake / Alcohol preference (proportion of ethanol solution to total amount of drink) / Total amount of drink: n=6; for Food intake / Total amount of drink: not significant
Method: Influence of deoxypeganine HCl on the voluntary alcohol consumption of genetic ethanol-preferring rats.
The experimental animals were in each case 6 female rats of a strain which goes back to the Finnish AA rat line. The animals of this inbred strain prefer 10% alcohol as a drinking liquid if pure water is additionally offered to them (free choice).
The animals were kept individually in type 3 Makrolon cages at a room temperature of 23° C. and air changes nine times per hour. Dry feed granules (Altromin 1311; meal to which vitamins, minerals, amino acids and trace elements are added; manufacturer: Altromin
Spezialfutterwerke GmbH, Lage), drinking water and ethanol solution (10% v/v) were available to them in unrestricted amounts only during the dark phase from 20.00 hours to 08.00 hours, namely in special vessels which guarantee loss-free feeding and drinking. The amounts consumed were determined gravimetrically; the amounts of drink automatically and continuously with the aid of twelve weighing cells. The respective proportion of ethanol solution to the total amount of drink in % served as a measure of the alcohol preference: 0% means that only water, no ethanol solution, was drunk, 100% means that exclusively ethanol solution was drunk. The average alcohol preference of the untreated experimental animals was 78% or 83%.
Table: Influence of deoxypeganine HCl on the ingestive behavior of female ethanol-prefering rats (n=6). The values determined during the three-day preliminary period in each case are in round brackets.

[2] = in contrast to neostigmine; cited from earlier work
cholinesterase = details: known pharmacological properties; cited from earlier work
[3] = summary of the table, 15 and 30 mg/kg orally

Cl.c1ccc2c(c1)CN1CCCC1=N2 [deoxypeganine HCl]
Alcohol consumption, absolute ([1]; 15 mg/kg orally, preliminary period value 6.47 ± 0.43, p<0.01): 3.17 ± 0.89 g/kg of BW | Food intake ([1]; 15 mg/kg orally, preliminary period value 55.2 ± 1.3): 57.7 ± 2.6 ns g/kg of BW | Alcohol preference (proportion of ethanol solution to total amount of drink) ([1]; 15 mg/kg orally, preliminary period value 82.8 ± 6.4, p<0.01): 45.0 ± 12.9 % | Total amount of drink ([1]; 15 mg/kg orally, preliminary period value 97.2 ± 2.3): 89.8 ± 5.6 ns g/kg of BW | Alcohol consumption, absolute ([1]; 30 mg/kg orally, preliminary period value 6.30 ± 0.34, p<0.001): 3.71 ± 0.42 g/kg of BW | Food intake ([1]; 30 mg/kg orally, preliminary period value 55.7 ± 2.1): 44.6 ± 7.6 ns g/kg of BW | Alcohol preference (proportion of ethanol solution to total amount of drink) ([1]; 30 mg/kg orally, preliminary period value 77.8 ± 4.3, p<0.001): 51.7 ± 6.4 % | Total amount of drink ([1]; 30 mg/kg orally, preliminary period value 100.9 ± 1.9): 90.6 ± 6.1 ns g/kg of BW

c1ccc2c(c1)CN1CCCC1=N2 [deoxypeganine, 1,2,3,9-tetrahydropyrrolo[2,1-b]quinazoline]
Blood-brain barrier passage [2]: crosses the blood-brain barrier | Desire for alcohol [1, 3]: considerably reduced | Food intake and total amount of drink [1, 3]: not significantly changed | Cholinesterase inhibition, mode of action (cholinesterase): reversibly acting cholinesterase inhibitors | Degradation of acetylcholine and of dopamine (cholinesterase): inhibits not only the degradation of acetylcholine, but also that of dopamine
